Laboratory results: US6896883B2 (priority 1997, dated 2005)

Test system: F. graminearum
Assay type: in vivo
Settings: wheat seeds in F. graminearum-infested soil, 7 days after planting

## c1ccc2[nH]c(-c3cscn3)nc2c1 [Thiabendazole, thiabendazole]
  % Germination: 80 a %
